Here are results for 2 compounds from patent US7205298B2, “Substituted triazine kinase inhibitors” (Janssen Pharmaceutica N.V., priority 2002, dated 2007).

In one test the target is T1, Protein Kinase A (Bos taurus, UniProt P00517).
T1 construct: purified from bovine heart; purchased Upstate Biotech 14-114; host or cells: bovine heart (tissue)
Briefly: Kinase selectivity assay Protein Kinase A. In kind it is biochemical, bovine. On the procedure: (§1) Assays to test compound inhibition of other kinases were preformed using methods that measure the amount of phosphorylation of a biotinylated peptide substrate. Biotinylated peptide substrates were selected from the literature as appropriate for the enzyme being evaluated. The general procedure used to assay for kinase activity is as follows: a kinase reaction mix was prepared in 50 mM Tris-HCl pH=8, 10 mM MgCl2, 0.1 mM Na3VO4, 1 mM DTT, 10 μM ATP, 0.25–1 μM biotinylated peptide substrate, 0.2–0.8 μCuries per well ^33P-γ-ATP (2000–3000 Ci/mmol). Assay conditions vary slightly for each protein kinase, for example, insulin receptor kinase requires 10 mM MnCl2 for activity and Calmodulin-dependent protein kinase requires calmodulin and 2 mM CaCl2. The reaction mixture was dispensed into the wells of a streptavidin coated Flashplate and 1 μL test compound in 100% DMSO was added to a 100 μL reaction volume resulting in a final concentration of 1% DMSO in the reaction. Enzyme was diluted in 50 mM Tris-HCl pH=8.0, 0.1% BSA and added to each well. The reaction was incubated for one hour at 30° C. in the presence of a test compound. […] The plate was read on a scintillation counter to determine ^33P-γ-ATP incorporated into the immobilized peptide substrate. […] A maximum and minimum signal for the assay was determined on each plate. […]

The target in another test is T2, Casein Kinase 2 (Homo sapiens, UniProt P68400).
T2 construct: purchased New England Biolabs 6010; host or cells: E. coli
T2 sequence (P68400 whole entry): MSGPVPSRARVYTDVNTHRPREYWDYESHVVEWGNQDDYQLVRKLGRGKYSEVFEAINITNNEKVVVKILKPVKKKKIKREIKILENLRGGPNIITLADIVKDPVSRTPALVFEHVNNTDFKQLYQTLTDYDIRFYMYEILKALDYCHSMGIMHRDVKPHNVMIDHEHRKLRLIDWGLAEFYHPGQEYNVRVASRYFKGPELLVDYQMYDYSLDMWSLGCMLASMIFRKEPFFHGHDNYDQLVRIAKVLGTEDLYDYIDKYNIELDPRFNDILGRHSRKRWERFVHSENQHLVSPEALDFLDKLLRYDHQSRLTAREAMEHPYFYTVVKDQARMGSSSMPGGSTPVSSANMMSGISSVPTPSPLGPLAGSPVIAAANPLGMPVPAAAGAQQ
T2 sequence (P67870 whole entry partner): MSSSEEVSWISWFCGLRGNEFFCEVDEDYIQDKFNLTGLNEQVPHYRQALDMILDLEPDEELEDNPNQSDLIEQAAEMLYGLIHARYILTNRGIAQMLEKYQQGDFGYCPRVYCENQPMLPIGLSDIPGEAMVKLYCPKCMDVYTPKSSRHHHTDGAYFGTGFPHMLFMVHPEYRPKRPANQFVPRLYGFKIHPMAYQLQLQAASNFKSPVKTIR
Briefly: Kinase selectivity assay Casein Kinase 2. In kind it is biochemical. On the procedure:
as §1

In test [1] the target is T3, Calmodulin Kinase (calmodulin-dependent protein kinase 2) (Rattus norvegicus, UniProt P11275).
T3 construct: purchased New England Biolabs 6060; host or cells: insect cells
Description: Kinase selectivity assay Calmodulin Kinase. In kind it is biochemical. The method, then: as §1

The next test addresses GSK-3 (beta isoform) (Oryctolagus cuniculus, UniProt G1T8E2). Description: Kinase selectivity assay GSK-3. In kind it is biochemical, rabbit. On the procedure:
as §1

The target of the next test is T4, MAP Kinase ERK-2 (Rattus norvegicus, UniProt P63086).
T4 construct: polyhistidine (N); purchased BIOMOL SE-137; host or cells: E. coli
T4 sequence (P63086 whole entry): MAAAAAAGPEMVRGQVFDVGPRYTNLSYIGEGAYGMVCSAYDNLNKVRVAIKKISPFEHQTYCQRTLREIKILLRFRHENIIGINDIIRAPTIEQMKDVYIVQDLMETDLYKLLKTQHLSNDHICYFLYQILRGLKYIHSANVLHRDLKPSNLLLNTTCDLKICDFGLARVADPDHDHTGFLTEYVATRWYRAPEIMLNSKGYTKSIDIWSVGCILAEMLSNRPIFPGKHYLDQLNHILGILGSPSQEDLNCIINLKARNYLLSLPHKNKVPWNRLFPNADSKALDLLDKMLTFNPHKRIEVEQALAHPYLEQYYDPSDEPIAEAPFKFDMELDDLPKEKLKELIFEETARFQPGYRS
Briefly: Kinase selectivity assay MAP Kinase ERK-2. In kind it is biochemical. On the procedure: as §1

For a further test, the target named is T5, Insulin Receptor Kinase (Homo sapiens, UniProt P06213).
T5 construct: consists of residues 941–1313 of the cytoplasmic domain of the beta-subunit of the human insulin receptor; purchased BIOMOL SE-195
T5 sequence (P06213 980-1352): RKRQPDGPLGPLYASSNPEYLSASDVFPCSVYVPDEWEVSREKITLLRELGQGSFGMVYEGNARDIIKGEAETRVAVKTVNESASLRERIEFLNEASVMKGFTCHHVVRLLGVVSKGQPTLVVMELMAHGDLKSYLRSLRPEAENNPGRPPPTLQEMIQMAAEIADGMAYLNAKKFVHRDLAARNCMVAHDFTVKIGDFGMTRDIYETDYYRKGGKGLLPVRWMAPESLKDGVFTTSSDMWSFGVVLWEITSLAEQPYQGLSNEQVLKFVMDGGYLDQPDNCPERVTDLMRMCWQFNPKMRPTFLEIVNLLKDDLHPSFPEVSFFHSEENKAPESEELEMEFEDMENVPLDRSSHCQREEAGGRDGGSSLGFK
Description: Kinase selectivity assay Insulin Receptor Kinase. In kind it is biochemical. On the procedure: as §1

Chain of GSK-3 (beta isoform) (G1T8E2 1-432): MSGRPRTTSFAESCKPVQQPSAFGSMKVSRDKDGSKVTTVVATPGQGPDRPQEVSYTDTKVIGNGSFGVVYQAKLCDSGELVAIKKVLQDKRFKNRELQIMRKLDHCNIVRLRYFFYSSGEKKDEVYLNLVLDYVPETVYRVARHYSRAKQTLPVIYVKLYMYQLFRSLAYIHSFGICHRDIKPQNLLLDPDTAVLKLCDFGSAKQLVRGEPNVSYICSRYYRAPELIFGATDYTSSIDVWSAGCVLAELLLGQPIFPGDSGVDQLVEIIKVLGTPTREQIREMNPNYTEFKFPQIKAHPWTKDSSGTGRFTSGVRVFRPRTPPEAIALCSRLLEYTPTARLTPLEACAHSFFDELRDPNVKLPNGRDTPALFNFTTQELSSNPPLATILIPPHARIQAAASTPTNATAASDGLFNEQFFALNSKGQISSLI

For `OCCCNc1cncc(-c2ncnc(Nc3cccc(Cl)c3)n2)c1` [Compound 1, 3-((5-(4-((3-chlorophenyl)amino)-1,3,5-triazin-2-yl)-3-pyridinyl)amino)-1-propanol], the IC50 (commonly the point on the concentration scale where inhibition reaches its midpoint) on Protein Kinase A was above 100 µM; against Casein Kinase 2, 0.926 µM; in test [1] it was 54.2 µM; at GSK-3 (beta isoform) it was 0.005 µM; on MAP Kinase ERK-2, above 100 µM; against Insulin Receptor Kinase, 18.2 µM.
Regarding `OCCCNc1cc(-c2ncnc(Nc3cccc(Cl)c3)n2)ccn1` [Compound 2, 3-((4-(4-((3-chlorophenyl)amino)-1,3,5-triazin-2-yl)-2-pyridinyl)amino)-1-propanol], the IC50 was above 100 µM at Protein Kinase A; above 100 µM on Casein Kinase 2; above 10 µM in test [1]; 0.017 µM at GSK-3 (beta isoform); above 10 µM against MAP Kinase ERK-2; above 10 µM against Insulin Receptor Kinase.
